Earlier results, collected in patent US20090274776A1, “Method for the Diagnosis and Treatment of Conditions Involving Aberrant Erythrocyte Potassium Levels” (THE REGENTS OF THE UNIVERSITY OF MICHIGAN, priority 2006, published 2009).

Experiments:
[1] = test system: RBC; conditions: RBC treated with the substance; by activation of IKCa
[2] = target: T1, KCa in RBC (Homo sapiens, UniProt O15554); conditions: red blood cells
T1 construct: host or cells: red blood cells (endogenous channel)

[3] = test system: endothelium-derived hyperpolarizing factor (EDHF); conditions: in the presence of apamin

Compound | K+ efflux in RBC [1] | effect on KCa in RBC [2] | EDHF relaxation [3]
Nc1nc2c(nc(Br)n2[C@@H]2O[C@@H]3COP(=O)(O)O[C@H]3[C@H]2O)c(=O)[nH]1 [8Br-cGMP] | increased |  | 
OC1(c2cccc(Cl)c2)C2=NCCCN2c2ccccc21 (stereo not shown) [Ciclazindol] |  | inhibits | abolishes
CC1(C)Oc2ccc(C#N)cc2C(N2CCCC2=O)C1O (stereo not shown) [cromakalim] |  | opens | 
